“Also recorded” adds a separate entry of the source.
Assays:
CD4+ CD25− naïve T cells [1] = experiment: In vitro naïve T cell differentiation, Treg-skew (FoxP3+ by FACS); format: cell-based, C57BL/6 mice; conditions: Treg skewing conditions, vs DMF control
Description: (§1) Mesenteric lymph node (MLN) and spleen are harvested from WT or FOXP3^EGFP C57Bl/6 mice and homogenized. Spleen tissue is subjected to red blood cell lysis and pooled into a single cell suspension for counting. Counted cells are resuspended in sterile FACS buffer (PBS++ with 05% bovine serum albumin) at a concentration of ˜5×10^7 cells/mL and stained for 45 minutes at 4° C. with anti-CD4 and anti-CD25 fluorophore-conjugated monoclonal antibodies (mAb). After two washes, the stained cells are resuspended at ˜6×10^6 cells/mL in FACS buffer and immediately sorted. […] TDMMs are solubilized in DMF at 2 M and used at desired concentrations (e.g., 0.01, 0.1, 0.5 and 1.0 mM) in growth media; DMF in growth media (0.05%) is used as a solvent control.
(§2) The % of Treg or Th17 cells are determined based on the expression of signature transcription factors, FoxP3 and Rorγt, respectively. In addition, signature cytokine markers for Treg and Th17, TGFβ or IL-17, respectively, among others are measured using intracellular cytokine staining. Since it is possible that a cell could be positive for FoxP3 and still express some IL-17, the final % of Tregs are determined as the cell population that is FoxP3+TGFβ+ Rorγt-IL-17−. Similarly, the % of Th17 cells are determined as the population that is FoxP3-TGFβ− Rorγt+IL-17+.
(§3) CD4+ CD25− T cells were isolated to high purity (>98%) from the pooled spleen and mesenteric lymph nodes of C57BL/6 mice (Jackson Labs) with a BD FACS Aria II flow cytometer. Fc Block (BD), αCD4-efluor450 (eBioscience clone GK1.5) and αCD25-PECy7 (eBioscience clone PC61.5) antibodies were used for staining before sorting.
(§4) For Th1-skew: 5 ng/mL IL-12 (Peprotech cat. #210-12) and 10 µg/mL αIL-4 (BioXCell clone 11B11) were added to culture. For Th2-skew: 10 ng/mL IL-4 (Peprotech) and 10 μg/mL αIFN-γ (BioXCell clone R4-6A2) were added to culture. For Th17-skew: 10 ng/mL IL-6 (Peprotech), 5 ng/mL IL-23 (R&D), 0.5 ng/mL TGF-β (Peprotech), 10 μg/mL al-4 (BioXCell clone 11B11), and 10 μg/mL αIFN-γ (BioXCell clone R4-6A2) were added to culture. For Treg-skew: 2 ng/mL TGF-β (Peprotech) and 100 U/mL IL-2 (Roche) were added to culture. Sodium Propionate, sodium acetate, sodium butyrate and sodium chloride (all from Sigma-Aldrich) were solubilized in media and added to culture. Indole was solubilized in DMF (both from Sigma-Aldrich) at 2M and brought to final concentration in media. MGCD0103 (Selleck Chemicals) was solubilized in DMF at 2 mM and brought to final concentration in media. A 0.05% DMF solvent control was used for all experiments.

CD4+ CD25− naïve T cells [2] = experiment: In vitro naïve T cell differentiation, Th17-skew (IL-17+ by FACS); format: cell-based, C57BL/6 mice; conditions: Th17 skewing conditions, vs DMF control
Description: as §1, §2, §3, §4

naïve T cells = conditions: Arpaia et al. 2013; cited from earlier work
[3] = test system: naïve T cells obtained from humans; experiment: Skewing of naïve T cells obtained from humans; format: cell-based
[4] = test system: wild-type or AhR KO T cells; experiment: T cell differentiation in wild-type vs AhR KO T cells; format: cell-based, mice
Description: The aryl hydrocarbon receptor (AhR) is implicated in the differentiation of Treg and Th17 cells. The role of AhR was assessed with respect to indole's effect on Treg augmentation. Wild-type and AhR KO naïve T-cells were conditioned with increasing amounts of indole and then assessed for % of FoxP3 expression. […] Additionally, the role of AhR was assessed with respect to indole's effect on Th17 inhibition.
The AhR knockout was further investigated for iTreg homing markers, CD62L and α4β7, as described above.
Next, the AhR knockout was further investigated for the impact of AhR on 5-HI-mediated T cell differentiation.

Th17 transfer colitis = Th17 transfer colitis murine model; format: in vivo, Rag-null mice
Description: Finally, the presentation describes a study of the effects of an indole-induced iTreg skew on the course of colitis in a Th17 transfer colitis murine model. […] Briefly, naïve T-cells (CD4+CD25−) were cultured in vitro with cytokines to skew function towards a Th17 phenotype, in the presence of indole or 5-HI, or not. The skewed cultures were transferred to Rag-null mice (lack T- and B-lymphocytes); control mice received no T-cells. Mice were monitored for weight loss (as a measure of inflammation) over several weeks and assessed at indicated timepoints for T-cell phenotype.
The body weight of the mice was monitored from the time of cell transfer to the end point of day 49. […] Next, the Treg, Th17, and Th1 differentiation was assessed in cells obtained from the mesenteric lymph nodes (MLN) of mice administered directly with indole, 5-HI and control. These cells were determined/assayed by FACS for phenotype directly ex vivo from mice that were treated as in FIG. 28.

IL-6 receptor / pSTAT3 = experiment: IL-6 receptor levels and STAT3 activity; format: cell-based; conditions: vs control
Description: Indole and 5-HI were assessed for impact on TGF-β receptor expression and SMAD2/3 activity. […] Indole and 5-HI were also assessed for impact on IL-6 receptor levels and subsequent STAT3 activity.

CD4+ CD25− naïve T cells [5] = experiment: In vitro naïve T cell differentiation, Th17-skew (IL-17+ by FACS); format: cell-based, C57BL/6 mice; conditions: low and high titrations of IL-6
CD4+ CD25− naïve T cells [6] = experiment: In vitro naïve T cell differentiation, Th1-skew (IFN-γ+); format: cell-based, C57BL/6 mice; conditions: Th1 skewing conditions; vs solvent control; listed as 5-HI
Description: When naïve CD4+ CD25− cells were cultured 72 hours in αCD3/28 coated wells with Th0-, Th1- or Th2-skew cytokines and indole or solvent control, followed by stimulation with PMA, Ionomycin and Golgi Plug for the last 5 hours of culture, no effect on the % of Th1 and Th2 cells was observed (in contrast to the significant effect that indole has on Treg and Th17 cells; see FIGS. 2A and 2B).
as §3, §4

[7] = MLN, D15 and D45, by the end point

CC(=O)O [acetate, reference compound]
effect on % FoxP3+ cells / Treg differentiation (CD4+ CD25− naïve T cells [1]): no effect on Treg development | effect on % IL-17+ cells / Th17 differentiation (CD4+ CD25− naïve T cells [2]): increases Th17 development

CCC(=O)O [propionate, reference compound]
effect on % FoxP3+ cells / Treg differentiation (CD4+ CD25− naïve T cells [1]): increases Treg and Th17 development | differentiation of naïve T cells to Treg cells (naïve T cells): promoted differentiation of naïve T cells to Treg cells | effect on % IL-17+ cells / Th17 differentiation (CD4+ CD25− naïve T cells [2]): increases Treg and Th17 development

Oc1ccc2[nH]ccc2c1 [5-hydroxyindole]
effect on % FoxP3+ cells / Treg differentiation (CD4+ CD25− naïve T cells [1]): decreasing the Treg population | effect on % FoxP3+ cells / Treg differentiation (CD4+ CD25− naïve T cells [1]; listed as 5-HI): inhibits a Treg response; also recorded: strongly inhibits Treg differentiation; also recorded: decreased the % FoxP3+ cells | skewing effects on Tregs and Th17 cells in human cells [3]: recapitulated on naïve T cells obtained from humans | % IL-17+ in wild-type vs AhR KO T cells [4]: significantly increased over wild-type cells | % of IFN-γ+ T cells in AhR KO vs wild-type T cells ([4]; Th1 skew): not significantly different than in wild-type cells | FoxP3+ % in wild-type vs AhR KO T cells ([4]; increasing amounts of test substance): decreases similarly in wild-type and AhR KO cells | Th1 differentiation in vivo (% INF-γ+ T cells, Th1/Treg balance, MLN) (Th17 transfer colitis; [7]): increases the number of Th17 differentiation in vivo | Th17 differentiation in vivo (% IL-17+ T cells, Th17/Treg balance, MLN) (Th17 transfer colitis; [7]): increases the number of Th17 differentiation in vivo | weight change (% from starting weight) (Th17 transfer colitis; mice receiving conditioned Th17 T cells, around day 43, end point day 49): declined precipitously | Th17 transfer colitis in vivo (overall) (Th17 transfer colitis; mouse, in vivo): exacerbates Th17 transfer colitis in vivo | % pSTAT3+ cells / IL-6 induced stat3 (IL-6 receptor / pSTAT3): augments the IL-6 induced stat3 expression | % IL-17+ cells with titrations of IL-6 (CD4+ CD25− naïve T cells [5]): increased the % IL-17+ cells | effect on % Th1 cells (IFN-γ+) (CD4+ CD25− naïve T cells [6]): promotes Th1 and Th17 differentiation; also recorded: increase in % IFN-γ+ cells | effect on % IL-17+ cells / Th17 differentiation (CD4+ CD25− naïve T cells [2]): increases Th17 cells | effect on % IL-17+ cells / Th17 differentiation (CD4+ CD25− naïve T cells [2]; listed as 5-HI): pro-Th17 response; also recorded: promotes Th1 and Th17 differentiation; also recorded: significant increase in % IL-17+ cells

O=C(O)C(=O)Cc1c[nH]c2ccccc12 [Indole-3-pyruvate]
effect on % FoxP3+ cells / Treg differentiation (CD4+ CD25− naïve T cells [1]): increasing Treg cells | effect on % IL-17+ cells / Th17 differentiation (CD4+ CD25− naïve T cells [2]): modest (but significant) decrease in Th17
